This note sets out measurements from the supplement of paper PMC10307832.

Experiment in all cases: relative viability (nuclei count vs DMSO), 5 days (fraction); higher = more cells survive
Compound in assay [1]: Nc1ccn([C@@H]2O[C@H](CO)[C@@H](O)C2(F)F)c(=O)n1 [Gemcitabine] + Cc1cc(Nc2cc(N3CCN(C)CC3)nc(Sc3ccc(NC(=O)C4CC4)cc3)n2)n[nH]1 [Tozasertib] (partner 0.1 µM)
The essentials: (§1)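 Nuclei were stained with Hoechst during a one-step fixation (final 0.05% Triton X-100, 1% formaldehyde, 1 ug/ml Hoechst) carried out 5 days after dosing, then counted on 4× images. The cells, lung cancer lines in 1536-well plates, had been dosed by pin tool the day after seeding with one drug alone or a fixed anchor-drug dose plus five library-drug doses (not always all listed) in √10 steps. Relative viability is the nuclei count in treated wells divided by that in vehicle wells, and each value is the median of duplicate plates.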

Compound in assay [2]: Nc1ccn([C@@H]2O[C@H](CO)[C@@H](O)C2(F)F)c(=O)n1 [Gemcitabine] + COc1cccc2cc(-c3nc([C@H]4CC[C@H](C(=O)O)CC4)n4ncnc(N)c34)[nH]c12 [OSI-027] (partner 0.5 µM)
Summed up: as §1

Compound in assay [3]: Nc1ccn([C@@H]2O[C@H](CO)[C@@H](O)C2(F)F)c(=O)n1 [Gemcitabine] + C[C@]1(O)C[C@@H](c2nc(-c3ccc4ccc(-c5ccccc5)nc4c3)c3c(N)nccn32)C1 [Linsitinib] (partner 1 µM)
Summed up:
as §1

Compound in assay [4]: Nc1ccn([C@@H]2O[C@H](CO)[C@@H](O)C2(F)F)c(=O)n1 [Gemcitabine] + C[C@@H](Oc1cc(-c2cnn(C3CCNCC3)c2)cnc1N)c1c(Cl)ccc(F)c1Cl [Crizotinib] (partner 1 µM)
Summed up: as §1

Turning to NCI-H1755, the relative viability in assay [1] (first compound 0.001 µM) was determined as 0.594; in assay [1] (first compound 0.003162 µM), 0.564; in assay [1] (first compound 0.01 µM) it was 0.411; in assay [1] (first compound 0.03162 µM), 0.321; in assay [1] (first compound 0.1 µM), 0.252; in assay [2] (first compound 0.001 µM), 0.789. Further, the relative viability in assay [2] (first compound 0.003162 µM) worked out at 0.715; in assay [2] (first compound 0.01 µM) it was 0.57; in assay [2] (first compound 0.03162 µM) it was 0.34; in assay [2] (first compound 0.1 µM), 0.272; in assay [3] (first compound 0.001 µM) it was 0.957; in assay [3] (first compound 0.003162 µM), 1.06. Moreover, the relative viability in assay [3] (first compound 0.01 µM) is 0.975; in assay [3] (first compound 0.03162 µM), 0.347; in assay [3] (first compound 0.1 µM), 0.259; in assay [4] (first compound 0.001 µM), 0.92; in assay [4] (first compound 0.003162 µM), 0.845; in assay [4] (first compound 0.01 µM), 0.681. The results for the relative viability in assay [4] (first compound 0.03162 µM) and in assay [4] (first compound 0.1 µM) were 0.268 and 0.218, respectively.

For the cell line NCI-H2228, the relative viability in assay [1] (first compound 0.001 µM) was 0.278; in assay [1] (first compound 0.003162 µM), 0.209; in assay [1] (first compound 0.01 µM) it was 0.154; in assay [1] (first compound 0.03162 µM) it was 0.108; in assay [1] (first compound 0.1 µM), 0.115; in assay [2] (first compound 0.001 µM) it was 0.614. In addition, the relative viability in assay [2] (first compound 0.003162 µM) was found to be 0.24; in assay [2] (first compound 0.01 µM), 0.129; in assay [2] (first compound 0.03162 µM), 0.122; in assay [2] (first compound 0.1 µM), 0.0908; in assay [3] (first compound 0.001 µM), 0.569; in assay [3] (first compound 0.003162 µM), 0.666. Also, the relative viability in assay [3] (first compound 0.01 µM) is 0.186; in assay [3] (first compound 0.03162 µM), 0.217; in assay [3] (first compound 0.1 µM), 0.112; in assay [4] (first compound 0.001 µM), 0.615; in assay [4] (first compound 0.003162 µM) it was 0.326; in assay [4] (first compound 0.01 µM), 0.233. For the same cell line, the relative viability was found to be 0.141 in assay [4] (first compound 0.03162 µM) and 0.166 in assay [4] (first compound 0.1 µM).

In the case of NCI-H2087, the relative viability stood at 0.31 in assay [1] (first compound 0.001 µM); 0.204 in assay [1] (first compound 0.003162 µM); 0.139 in assay [1] (first compound 0.01 µM); 0.0946 in assay [1] (first compound 0.03162 µM); 0.0735 in assay [1] (first compound 0.1 µM); 0.532 in assay [2] (first compound 0.001 µM). In addition, the relative viability was 0.229 in assay [2] (first compound 0.003162 µM); 0.112 in assay [2] (first compound 0.01 µM); 0.0781 in assay [2] (first compound 0.03162 µM); 0.0817 in assay [2] (first compound 0.1 µM); 0.93 in assay [3] (first compound 0.001 µM); 0.808 in assay [3] (first compound 0.003162 µM). Moreover, the relative viability came to 0.579 in assay [3] (first compound 0.01 µM); 0.217 in assay [3] (first compound 0.03162 µM); 0.183 in assay [3] (first compound 0.1 µM); 0.963 in assay [4] (first compound 0.001 µM); 0.8 in assay [4] (first compound 0.003162 µM); 0.405 in assay [4] (first compound 0.01 µM). The relative viability in assay [4] (first compound 0.03162 µM) worked out at 0.133; in assay [4] (first compound 0.1 µM) it was 0.161.

On to LU99A, for which the relative viability in assay [1] (first compound 0.001 µM) is 0.26; in assay [1] (first compound 0.003162 µM), 0.322; in assay [1] (first compound 0.01 µM), 0.294; in assay [1] (first compound 0.03162 µM), 0.327; in assay [1] (first compound 0.1 µM), 0.265; in assay [2] (first compound 0.001 µM), 0.275. Moreover, the relative viability turned out to be 0.348 in assay [2] (first compound 0.003162 µM); 0.307 in assay [2] (first compound 0.01 µM); 0.304 in assay [2] (first compound 0.03162 µM); 0.286 in assay [2] (first compound 0.1 µM); 0.601 in assay [3] (first compound 0.001 µM); 0.597 in assay [3] (first compound 0.003162 µM). Besides, the relative viability came to 0.487 in assay [3] (first compound 0.01 µM); 0.576 in assay [3] (first compound 0.03162 µM); 0.554 in assay [3] (first compound 0.1 µM); 0.577 in assay [4] (first compound 0.001 µM); 0.648 in assay [4] (first compound 0.003162 µM); 0.567 in assay [4] (first compound 0.01 µM). Also, the figures for the relative viability in assay [4] (first compound 0.03162 µM) and in assay [4] (first compound 0.1 µM) were 0.567 and 0.562, respectively.

Consider NCI-H1355, for which the relative viability in assay [1] (first compound 0.001 µM) was 0.508; in assay [1] (first compound 0.003162 µM), 0.393; in assay [1] (first compound 0.01 µM) it was 0.189; in assay [1] (first compound 0.03162 µM), 0.18; in assay [1] (first compound 0.1 µM) it was 0.169; in assay [2] (first compound 0.001 µM) it was 0.362. The relative viability in assay [2] (first compound 0.003162 µM) stood at 0.28; in assay [2] (first compound 0.01 µM), 0.159; in assay [2] (first compound 0.03162 µM) it was 0.178; in assay [2] (first compound 0.1 µM), 0.173; in assay [3] (first compound 0.001 µM), 0.816; in assay [3] (first compound 0.003162 µM), 0.606. The relative viability in assay [3] (first compound 0.01 µM) was determined as 0.221; in assay [3] (first compound 0.03162 µM) it was 0.123; in assay [3] (first compound 0.1 µM), 0.129; in assay [4] (first compound 0.001 µM) it was 0.996; in assay [4] (first compound 0.003162 µM) it was 0.706; in assay [4] (first compound 0.01 µM), 0.193. Also, the relative viability in assay [4] (first compound 0.03162 µM) is 0.158; in assay [4] (first compound 0.1 µM) it was 0.141.

Consider NCI-H520, for which the relative viability in assay [1] (first compound 0.001 µM) turned out to be 0.422; in assay [1] (first compound 0.003162 µM), 0.446; in assay [1] (first compound 0.01 µM), 0.316; in assay [1] (first compound 0.03162 µM), 0.208; in assay [1] (first compound 0.1 µM), 0.239; in assay [2] (first compound 0.001 µM), 0.306. For the same cell line, the relative viability in assay [2] (first compound 0.003162 µM) was 0.296; in assay [2] (first compound 0.01 µM), 0.254; in assay [2] (first compound 0.03162 µM), 0.189; in assay [2] (first compound 0.1 µM), 0.156; in assay [3] (first compound 0.001 µM), 1.13; in assay [3] (first compound 0.003162 µM), 0.917. Also, the relative viability in assay [3] (first compound 0.01 µM) worked out at 0.482; in assay [3] (first compound 0.03162 µM) it was 0.186; in assay [3] (first compound 0.1 µM) it was 0.131; in assay [4] (first compound 0.001 µM) it was 0.915; in assay [4] (first compound 0.003162 µM), 0.769; in assay [4] (first compound 0.01 µM), 0.465. Further, the relative viability was 0.156 in assay [4] (first compound 0.03162 µM) and 0.108 in assay [4] (first compound 0.1 µM).

NCI-H661: the relative viability amounted to 0.367 in assay [1] (first compound 0.001 µM); 0.366 in assay [1] (first compound 0.003162 µM); 0.338 in assay [1] (first compound 0.01 µM); 0.263 in assay [1] (first compound 0.03162 µM); 0.219 in assay [1] (first compound 0.1 µM); 0.767 in assay [2] (first compound 0.001 µM). Further, the relative viability came to 0.597 in assay [2] (first compound 0.003162 µM); 0.374 in assay [2] (first compound 0.01 µM); 0.204 in assay [2] (first compound 0.03162 µM); 0.208 in assay [2] (first compound 0.1 µM); 0.534 in assay [3] (first compound 0.001 µM); 0.406 in assay [3] (first compound 0.003162 µM). Besides, the relative viability in assay [3] (first compound 0.01 µM) was 0.245; in assay [3] (first compound 0.03162 µM), 0.198; in assay [3] (first compound 0.1 µM) it was 0.15; in assay [4] (first compound 0.001 µM) it was 1.09; in assay [4] (first compound 0.003162 µM) it was 0.983; in assay [4] (first compound 0.01 µM) it was 0.856. Further, the relative viability came to 0.333 in assay [4] (first compound 0.03162 µM) and 0.285 in assay [4] (first compound 0.1 µM).
